Experiments:
BT-549 = experiment: Cytotoxicity against human BT549 cells after 72 hrs by SRB assay; format: functional, cell-based; settings: BT-549, 72 h
A549 = experiment: Cytotoxicity against human A549 cells after 72 hrs by SRB assay; format: functional, cell-based; settings: A549, 72 h
SK-HEP1 = experiment: Cytotoxicity against human SKHEP1 cells after 72 hrs by SRB assay; format: functional, cell-based; settings: SK-HEP1, 72 h
MCF7 = experiment: Cytotoxicity against human MCF7 cells after 72 hrs by SRB assay; format: functional, cell-based; settings: MCF7, 72 h
HCT-116 = experiment: Cytotoxicity against human HCT116 cells after 72 hrs by SRB assay; format: functional, cell-based; settings: HCT-116, 72 h
SNU-638 = experiment: Cytotoxicity against human SNU638 cells after 72 hrs by SRB assay; format: functional, cell-based; settings: SNU-638, 72 h
[1] = target: Phosphatidylinositol 4,5-bisphosphate 3-kinase catalytic subunit beta isoform (Homo sapiens, UniProt P42338); experiment: Inhibition of PI3K p110beta (unknown origin) using PIP2 as substrate by ELISA
[2] = target: T1, Phosphatidylinositol 4,5-bisphosphate 3-kinase catalytic subunit delta isoform (Homo sapiens, UniProt O00329); experiment: Inhibition of PI3K p110delta (unknown origin) using PIP2 as substrate by ELISA
T1 sequence (O00329 whole entry): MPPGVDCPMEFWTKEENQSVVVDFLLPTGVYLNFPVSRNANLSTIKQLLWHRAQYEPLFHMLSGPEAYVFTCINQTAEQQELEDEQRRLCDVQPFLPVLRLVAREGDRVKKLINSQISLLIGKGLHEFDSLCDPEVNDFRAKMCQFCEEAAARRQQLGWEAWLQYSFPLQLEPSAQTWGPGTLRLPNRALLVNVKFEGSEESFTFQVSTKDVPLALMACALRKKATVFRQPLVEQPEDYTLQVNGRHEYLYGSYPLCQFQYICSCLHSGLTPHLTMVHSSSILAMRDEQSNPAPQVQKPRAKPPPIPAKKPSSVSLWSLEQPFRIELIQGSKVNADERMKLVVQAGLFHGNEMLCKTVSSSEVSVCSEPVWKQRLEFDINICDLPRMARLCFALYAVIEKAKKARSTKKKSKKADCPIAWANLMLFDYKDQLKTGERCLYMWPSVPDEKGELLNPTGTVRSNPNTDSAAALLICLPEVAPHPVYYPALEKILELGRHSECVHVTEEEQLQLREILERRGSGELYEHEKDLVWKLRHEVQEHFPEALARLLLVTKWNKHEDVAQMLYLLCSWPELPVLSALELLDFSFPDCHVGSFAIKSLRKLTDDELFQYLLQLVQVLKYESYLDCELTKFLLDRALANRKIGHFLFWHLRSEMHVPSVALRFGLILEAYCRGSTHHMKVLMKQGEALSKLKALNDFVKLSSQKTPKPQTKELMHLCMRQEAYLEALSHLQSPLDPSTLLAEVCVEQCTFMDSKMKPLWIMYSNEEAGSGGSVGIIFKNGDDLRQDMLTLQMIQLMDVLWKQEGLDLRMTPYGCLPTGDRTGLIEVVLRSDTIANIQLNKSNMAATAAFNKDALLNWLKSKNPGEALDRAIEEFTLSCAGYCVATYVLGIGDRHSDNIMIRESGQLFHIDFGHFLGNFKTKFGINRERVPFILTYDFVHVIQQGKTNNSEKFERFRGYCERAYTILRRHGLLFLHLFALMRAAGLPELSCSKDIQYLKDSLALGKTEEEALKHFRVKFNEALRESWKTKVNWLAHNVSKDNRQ

[3] = target: Phosphatidylinositol 4,5-bisphosphate 3-kinase catalytic subunit alpha isoform (Homo sapiens, UniProt P42336); experiment: Inhibition of PI3K p110alpha (unknown origin) using PIP2 as substrate by ELISA
[4] = target: Epidermal growth factor receptor (Homo sapiens, UniProt P00533); experiment: Inhibition of EGFR (unknown origin) using FAM-labeled peptide as substrate preincubated for 10 mins followed by substrate addition and measured after 1 hr by mobility shift assay
[5] = target: Phosphatidylinositol 4,5-bisphosphate 3-kinase catalytic subunit gamma isoform (Homo sapiens, UniProt P48736); experiment: Inhibition of PI3K p110gamma (unknown origin) using PIP2 as substrate by ELISA
Chain of Phosphatidylinositol 4,5-bisphosphate 3-kinase catalytic subunit gamma isoform (P48736 whole entry, canonical isoform): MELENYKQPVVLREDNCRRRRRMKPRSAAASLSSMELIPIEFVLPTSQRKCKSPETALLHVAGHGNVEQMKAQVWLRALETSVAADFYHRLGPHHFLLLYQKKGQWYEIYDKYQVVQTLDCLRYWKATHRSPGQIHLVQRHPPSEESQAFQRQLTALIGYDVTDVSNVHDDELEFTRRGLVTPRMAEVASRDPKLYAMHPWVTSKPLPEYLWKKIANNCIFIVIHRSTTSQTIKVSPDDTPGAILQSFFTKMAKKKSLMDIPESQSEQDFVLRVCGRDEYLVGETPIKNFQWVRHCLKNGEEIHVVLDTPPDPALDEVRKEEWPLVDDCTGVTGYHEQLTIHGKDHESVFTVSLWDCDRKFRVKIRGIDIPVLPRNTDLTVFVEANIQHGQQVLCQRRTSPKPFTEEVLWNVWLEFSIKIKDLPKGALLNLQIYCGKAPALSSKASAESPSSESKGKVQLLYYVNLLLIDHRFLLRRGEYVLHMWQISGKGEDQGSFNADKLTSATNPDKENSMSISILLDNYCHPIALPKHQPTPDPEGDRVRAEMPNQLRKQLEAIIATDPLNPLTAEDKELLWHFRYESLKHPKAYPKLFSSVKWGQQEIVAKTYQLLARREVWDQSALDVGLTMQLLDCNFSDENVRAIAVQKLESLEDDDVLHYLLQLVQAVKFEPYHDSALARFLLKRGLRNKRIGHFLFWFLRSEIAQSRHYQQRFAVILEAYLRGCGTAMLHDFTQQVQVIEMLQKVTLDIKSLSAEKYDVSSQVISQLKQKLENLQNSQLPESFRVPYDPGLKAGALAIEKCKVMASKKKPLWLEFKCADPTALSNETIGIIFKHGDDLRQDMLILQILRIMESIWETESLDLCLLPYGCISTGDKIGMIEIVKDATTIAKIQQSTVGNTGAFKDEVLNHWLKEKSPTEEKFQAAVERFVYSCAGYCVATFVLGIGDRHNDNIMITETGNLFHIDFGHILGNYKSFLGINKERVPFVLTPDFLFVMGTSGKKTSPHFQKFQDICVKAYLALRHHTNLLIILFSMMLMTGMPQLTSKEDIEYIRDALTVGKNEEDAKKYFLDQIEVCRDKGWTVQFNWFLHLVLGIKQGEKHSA

Chain of Phosphatidylinositol 4,5-bisphosphate 3-kinase catalytic subunit alpha isoform (P42336 whole entry, canonical isoform): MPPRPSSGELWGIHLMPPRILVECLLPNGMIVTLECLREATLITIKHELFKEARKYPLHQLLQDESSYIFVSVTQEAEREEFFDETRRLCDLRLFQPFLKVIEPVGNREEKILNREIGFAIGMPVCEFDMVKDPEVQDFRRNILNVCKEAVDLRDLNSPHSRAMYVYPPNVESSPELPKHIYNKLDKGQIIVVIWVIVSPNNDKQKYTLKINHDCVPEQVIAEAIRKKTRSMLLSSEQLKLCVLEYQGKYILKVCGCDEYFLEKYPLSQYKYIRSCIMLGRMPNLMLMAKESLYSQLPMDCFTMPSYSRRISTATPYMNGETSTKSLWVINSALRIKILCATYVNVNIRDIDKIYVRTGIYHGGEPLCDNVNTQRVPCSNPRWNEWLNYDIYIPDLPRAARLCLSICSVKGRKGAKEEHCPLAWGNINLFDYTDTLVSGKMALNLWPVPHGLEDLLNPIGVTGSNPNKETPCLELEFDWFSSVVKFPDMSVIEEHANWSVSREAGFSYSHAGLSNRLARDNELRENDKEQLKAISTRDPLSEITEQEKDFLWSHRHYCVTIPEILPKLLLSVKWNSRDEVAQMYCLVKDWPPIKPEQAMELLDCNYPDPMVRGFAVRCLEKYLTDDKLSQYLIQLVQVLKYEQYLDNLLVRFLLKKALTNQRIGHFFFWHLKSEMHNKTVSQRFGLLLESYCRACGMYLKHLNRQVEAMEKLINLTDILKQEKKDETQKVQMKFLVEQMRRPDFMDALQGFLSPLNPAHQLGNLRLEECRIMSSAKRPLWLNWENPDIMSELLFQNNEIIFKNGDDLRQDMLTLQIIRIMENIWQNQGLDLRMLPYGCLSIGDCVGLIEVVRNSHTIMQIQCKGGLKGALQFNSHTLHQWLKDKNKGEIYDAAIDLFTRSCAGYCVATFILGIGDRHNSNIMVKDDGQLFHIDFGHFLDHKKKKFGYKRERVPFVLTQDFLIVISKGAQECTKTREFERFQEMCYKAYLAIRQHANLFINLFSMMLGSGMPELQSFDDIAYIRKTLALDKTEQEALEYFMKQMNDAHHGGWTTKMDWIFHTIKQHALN
Chain of Epidermal growth factor receptor (P00533 whole entry, canonical isoform): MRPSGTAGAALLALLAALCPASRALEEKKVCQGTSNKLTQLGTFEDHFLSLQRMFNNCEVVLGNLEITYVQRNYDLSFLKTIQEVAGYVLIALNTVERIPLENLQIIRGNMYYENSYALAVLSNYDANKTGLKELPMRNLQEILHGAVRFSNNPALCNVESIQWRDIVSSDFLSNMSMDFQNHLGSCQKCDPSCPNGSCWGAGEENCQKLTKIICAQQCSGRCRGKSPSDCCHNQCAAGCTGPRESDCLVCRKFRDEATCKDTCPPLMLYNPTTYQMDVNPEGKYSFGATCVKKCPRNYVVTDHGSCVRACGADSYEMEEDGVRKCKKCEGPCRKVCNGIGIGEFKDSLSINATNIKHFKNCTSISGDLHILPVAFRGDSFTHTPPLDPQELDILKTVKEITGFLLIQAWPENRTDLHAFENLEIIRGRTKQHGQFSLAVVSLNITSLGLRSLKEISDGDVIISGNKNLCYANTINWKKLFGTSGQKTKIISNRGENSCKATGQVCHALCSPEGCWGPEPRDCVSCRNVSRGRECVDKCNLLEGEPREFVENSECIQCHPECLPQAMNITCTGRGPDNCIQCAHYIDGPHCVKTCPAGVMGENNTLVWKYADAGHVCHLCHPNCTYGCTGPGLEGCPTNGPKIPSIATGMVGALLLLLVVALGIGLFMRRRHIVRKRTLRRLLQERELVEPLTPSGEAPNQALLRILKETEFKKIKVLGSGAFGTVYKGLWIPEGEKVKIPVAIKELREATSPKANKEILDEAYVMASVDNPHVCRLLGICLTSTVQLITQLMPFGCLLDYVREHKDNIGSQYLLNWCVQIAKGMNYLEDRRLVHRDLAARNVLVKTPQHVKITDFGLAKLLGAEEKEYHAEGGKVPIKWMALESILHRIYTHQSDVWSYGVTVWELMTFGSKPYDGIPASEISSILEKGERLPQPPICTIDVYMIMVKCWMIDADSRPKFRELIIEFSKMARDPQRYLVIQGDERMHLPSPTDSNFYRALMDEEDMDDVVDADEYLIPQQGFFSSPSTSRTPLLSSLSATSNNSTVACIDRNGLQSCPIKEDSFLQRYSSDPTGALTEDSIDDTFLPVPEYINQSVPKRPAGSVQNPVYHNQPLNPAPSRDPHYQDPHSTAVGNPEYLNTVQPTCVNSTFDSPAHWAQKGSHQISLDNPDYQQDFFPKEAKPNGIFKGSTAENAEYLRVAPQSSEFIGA
Chain of Phosphatidylinositol 4,5-bisphosphate 3-kinase catalytic subunit beta isoform (P42338 whole entry, canonical isoform): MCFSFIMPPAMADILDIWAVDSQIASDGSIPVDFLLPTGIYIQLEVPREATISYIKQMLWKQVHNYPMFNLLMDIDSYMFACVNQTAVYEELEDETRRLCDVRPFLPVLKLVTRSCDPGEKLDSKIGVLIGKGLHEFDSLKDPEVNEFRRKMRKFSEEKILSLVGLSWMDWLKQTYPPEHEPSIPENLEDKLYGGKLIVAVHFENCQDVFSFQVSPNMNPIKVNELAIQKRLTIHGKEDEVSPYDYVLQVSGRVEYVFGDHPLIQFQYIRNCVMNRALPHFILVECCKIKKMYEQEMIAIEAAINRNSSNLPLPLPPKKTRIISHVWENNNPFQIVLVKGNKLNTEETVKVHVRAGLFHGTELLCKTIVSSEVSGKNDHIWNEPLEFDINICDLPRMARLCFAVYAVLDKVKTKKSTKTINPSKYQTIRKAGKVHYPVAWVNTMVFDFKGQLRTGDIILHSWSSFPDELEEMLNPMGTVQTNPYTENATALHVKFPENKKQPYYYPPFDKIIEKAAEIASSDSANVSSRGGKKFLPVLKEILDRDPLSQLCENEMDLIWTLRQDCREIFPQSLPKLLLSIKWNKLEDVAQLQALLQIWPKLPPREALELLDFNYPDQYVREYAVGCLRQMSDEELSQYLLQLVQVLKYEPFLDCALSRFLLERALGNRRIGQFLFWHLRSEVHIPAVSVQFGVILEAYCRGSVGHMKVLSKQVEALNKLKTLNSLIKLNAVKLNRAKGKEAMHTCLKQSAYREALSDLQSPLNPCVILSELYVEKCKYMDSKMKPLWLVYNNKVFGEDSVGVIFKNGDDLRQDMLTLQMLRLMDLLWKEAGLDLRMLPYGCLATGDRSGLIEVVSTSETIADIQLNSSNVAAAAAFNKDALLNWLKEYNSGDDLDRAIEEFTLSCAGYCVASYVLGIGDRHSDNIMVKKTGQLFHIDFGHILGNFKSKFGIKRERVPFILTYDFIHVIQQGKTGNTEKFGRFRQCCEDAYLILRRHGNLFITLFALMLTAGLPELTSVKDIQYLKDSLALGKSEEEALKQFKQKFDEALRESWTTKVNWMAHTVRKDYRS

SMILES | IC50 (BT-549) [µM] | IC50 (A549) [µM] | IC50 (SK-HEP1) [µM] | IC50 (MCF7) [µM] | IC50 (HCT-116) [µM] | IC50 (SNU-638) [µM] | IC50 [1] [µM] | IC50 [2] [µM] | IC50 [3] [µM] | IC50 [4] [µM] | IC50 [5] [µM]
CCS(=O)(=O)Nc1cc(-c2ccc3ncnc(Nc4ccc(F)c(C(=O)OC)c4)c3c2)cnc1OC | 2.74 | 3.42 | 5.18 | 1.15 | 2.36 | 2.54 |  |  |  |  | 
CCS(=O)(=O)Nc1cc(-c2ccc3ncnc(Nc4ccc(OC)c(OC)c4)c3c2)cnc1OC | 2.59 | 5.82 | 2.84 | 2.43 | 4.36 | 1.68 |  |  |  |  | 
CCS(=O)(=O)Nc1cc(-c2ccc3ncnc(Nc4ccc(Cl)c(C(=O)OC)c4)c3c2)cnc1OC | 2.36 | 2.13 | 7.06 | 1.43 | 3.13 | 2.2 |  |  |  |  | 
CCS(=O)(=O)Nc1cc(-c2ccc3ncnc(Nc4ccc(F)nc4)c3c2)cnc1OC | 4.78 | 6.72 | 5.24 | 5.39 | 7.62 | 6.52 |  |  |  |  | 
CCS(=O)(=O)Nc1cc(-c2ccc3ncnc(Nc4ccc(C(=O)OC)c(OC)c4)c3c2)cnc1OC | 3.76 | 3.35 | 0.83 | 10.9 | 1.69 | 3.44 |  |  |  |  | 
CCS(=O)(=O)Nc1cc(-c2ccc3ncnc(Nc4cccc(C(=O)OC)c4)c3c2)cnc1OC | 1.08 | 1.1 | 2.4 | 10.1 | 0.4 | 1.12 | 4.94 | 4.36 | 0.165 | 0.409 | 1.78
CCCCS(=O)(=O)Nc1cc(-c2ccc3ncnc(Nc4cccc(C(=O)OCC)c4)c3c2)cnc1OC | 37.2 | 42.3 | 21.6 | 36.4 | 26.7 | 25.2 |  |  |  |  | 
CCCCS(=O)(=O)Nc1cc(-c2ccc3ncnc(Nc4ccc(F)c(Cl)c4)c3c2)cnc1OC | 56.8 | 77.1 | 53.8 | 65.8 | 9.99 | 5.35 |  |  |  |  | 
CCS(=O)(=O)Nc1cc(-c2ccc3ncnc(Nc4ccc(OC)cc4)c3c2)cnc1OC | 1.88 | 3.58 | 1.61 | 1.79 | 3.49 | 3.97 |  |  |  |  | 
CCS(=O)(=O)Nc1cc(-c2ccc3ncnc(Nc4cccc(F)c4)c3c2)cnc1OC | 2.76 | 9.94 | 1.85 | 8.02 | 3.94 | 2.76 |  |  |  |  | 
CCS(=O)(=O)Nc1cc(-c2ccc3ncnc(Nc4ccc(OC)nc4)c3c2)cnc1OC | 3.49 | 5.56 | 3.44 | 3.77 | 6.91 | 4.28 |  |  |  |  | 
CCS(=O)(=O)Nc1cc(-c2ccc3ncnc(Nc4ccc(OC(F)(F)F)cc4)c3c2)cnc1OC | 8.24 | 25.4 | 6.14 | 23.7 | 16.6 | 22.4 |  |  |  |  | 
COC(=O)c1cccc(Nc2ncnc3ccc(-c4cnc(OC)c(NS(=O)(=O)c5ccc(F)cc5F)c4)cc23)c1 | 12.7 | 10.5 | 2.8 | 22.4 | 1.5 | 0.4 |  |  |  |  | 
CCS(=O)(=O)Nc1cc(-c2ccc3ncnc(Nc4ccc(F)cc4F)c3c2)cnc1OC | 2.48 | 4.71 | 2.49 | 1.61 | 4.01 | 2.05 |  |  |  |  | 
CCS(=O)(=O)Nc1cc(-c2ccc3ncnc(Nc4ccc(OCc5ccc(F)cc5)c(Cl)c4)c3c2)cnc1OC | 14.6 | 31.3 | 1.95 | 28.4 | 5.41 | 2.36 |  |  |  |  | 
Cn1c(=O)n(-c2ccc(C(C)(C)C#N)cc2)c2c3cc(-c4cnc5ccccc5c4)ccc3ncc21 [DACTOLISIB] | 0.74 | 0.62 | 1.82 | 1.33 | 0.84 | 1.24 |  |  |  |  | 
CCS(=O)(=O)Nc1cc(-c2ccc3ncnc(Nc4ccc(OC)c(Cl)c4)c3c2)cnc1OC | 2.47 | 5.24 | 2.81 | 3.32 | 5.62 | 3.62 |  |  |  |  | 
CCS(=O)(=O)Nc1cc(-c2ccc3ncnc(Nc4ccc(F)cc4)c3c2)cnc1OC | 3.12 | 7.62 | 1.47 | 6.51 | 3.16 | 2.4 |  |  |  |  | 

Source: ChEMBL document CHEMBL4196007, “Design, synthesis and biological evaluation of novel 4-aminoquinazolines as dual target inhibitors of EGFR-PI3Kα” (Eur J Med Chem, 2018)
